Data reported in PubChem BioAssay AID248 (DTP/NCI, 2004).
Inconclusive results and toxic doses are left out. No stated cut-off is given here; in the data, active means T/C of 150% or more; inactive means T/C below 125%.

System: L1210 leukemia ip in BDF1 mice, survival T/C
Assay: NCI In Vivo Anticancer Drug Screen. Data for tumor model L1210 Leukemia (intraperitoneal) in B6D2F1 (BDF1) mice
Conditions: endpoint: mean survival time, higher = longer survival
Outline: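 Antitumor effect is assessed in tumor-bearing animals. Survival in the compound arm is compared with a vehicle-dosed control arm and expressed as their quotient.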

[1] = dose: 100.0 mg/kg/injection, schedule: Q04DX003 (ip), vehicle: saline
[2] = dose: 100.0 mg/kg/injection, schedule: Q01DX009 (ip), vehicle: saline with Tween-80
[3] = dose: 100.0 mg/kg/injection, schedule: Q04DX002 (ip), vehicle: Klucel (hydroxypropylcellulose) (HPC)
[4] = dose: 200.0 mg/kg/injection, schedule: Q01DX009 (ip), vehicle: saline with Tween-80
[5] = dose: 200.0 mg/kg/injection, schedule: Q04DX002 (ip), vehicle: Klucel (hydroxypropylcellulose) (HPC)
[6] = dose: 400.0 mg/kg/injection, schedule: Q01DX009 (ip), vehicle: saline with Tween-80
[7] = dose: 400.0 mg/kg/injection, schedule: Q04DX002 (ip), vehicle: Klucel (hydroxypropylcellulose) (HPC)
[8] = dose: 100.0 mg/kg/injection, schedule: Q04DX003 (ip), vehicle: saline with Tween-80
[9] = dose: 200.0 mg/kg/injection, schedule: Q04DX003 (ip), vehicle: saline with Tween-80
[10] = dose: 400.0 mg/kg/injection, schedule: Q04DX003 (ip), vehicle: saline with Tween-80
[11] = dose: 100.0 mg/kg/injection, schedule: Q01DX009 (ip), vehicle: Klucel (hydroxypropylcellulose) (HPC)
[12] = dose: 200.0 mg/kg/injection, schedule: Q01DX009 (ip), vehicle: Klucel (hydroxypropylcellulose) (HPC)
[13] = dose: 25.0 mg/kg/injection, schedule: Q04DX002 (ip), vehicle: saline
[14] = dose: 50.0 mg/kg/injection, schedule: Q04DX002 (ip), vehicle: saline
[15] = dose: 100.0 mg/kg/injection, schedule: Q04DX002 (ip), vehicle: saline

Measured: T/C

CCOC(=O)C1NC(=O)N(c2ccccc2)C1=O (configuration not stated)
inactive: [1] 103 % of control | dose: 200.0 mg/kg/injection, schedule: Q04DX003 (ip), vehicle: saline 108 % of control | dose: 400.0 mg/kg/injection, schedule: Q04DX003 (ip), vehicle: saline 104 % of control

N#C/C=C/C1CCCCC1
inactive: dose: 25.0 mg/kg/injection, schedule: Q04DX003 (ip), vehicle: saline 109 % of control | dose: 50.0 mg/kg/injection, schedule: Q04DX003 (ip), vehicle: saline 107 % of control | dose: 100.0 mg/kg/injection, schedule: Q01DX001 (ip), vehicle: saline 95 % of control | [1] 105 % of control

CCOc1ccc(/C=C2\N=C(c3cc(OC)c(OC)c(OC)c3)OC2=O)cc1
inactive: [2] 102 % of control | [3] 96 % of control | [4] 123 % of control | [5] 86 % of control | [6] 108 % of control | [7] 96 % of control

COC(=O)N(CCCCN(N=O)C(=O)OC)N=O
inactive: [3] 101 % of control | [5] 108 % of control

Cc1ccccc1SCC#CCSc1ccccc1C
inactive: dose: 100.0 mg/kg/injection, schedule: Q01DX001 (ip), vehicle: Klucel (hydroxypropylcellulose) (HPC) 93 % of control | dose: 200.0 mg/kg/injection, schedule: Q01DX001 (ip), vehicle: Klucel (hydroxypropylcellulose) (HPC) 95 % of control | dose: 400.0 mg/kg/injection, schedule: Q01DX001 (ip), vehicle: Klucel (hydroxypropylcellulose) (HPC) 106 % of control

COc1cccc2c1CCC1C2CCC2(O)CC(=O)CCC12C (configuration not stated)
inactive: dose: 100.0 mg/kg/injection, schedule: Q04DX003 (sc), vehicle: steriod suspending solution 115 % of control | dose: 200.0 mg/kg/injection, schedule: Q04DX003 (sc), vehicle: steriod suspending solution 113 % of control | dose: 400.0 mg/kg/injection, schedule: Q04DX003 (sc), vehicle: steriod suspending solution 113 % of control

O=C(O)CCCc1ccc2c(c1)-c1ccccc1S2=O (configuration not stated)
inactive: [8] 106 % of control | [9] 109 % of control | [10] 110 % of control

CCOC(=O)/C(C#N)=C(\CC)c1ccccc1
inactive: [11] 98 % of control | [12] 101 % of control

CCOC(=O)C(=CNc1cccc2ccncc12)C(=O)OCC
inactive: [8] 104 % of control | [9] 95 % of control | [10] 117 % of control

CCOC(=O)/C=C(\N)c1ccccc1
inactive: dose: 100.0 mg/kg/injection, schedule: Q04DX002 (ip), vehicle: saline with Tween-80 102 % of control | dose: 200.0 mg/kg/injection, schedule: Q04DX002 (ip), vehicle: saline with Tween-80 108 % of control | dose: 400.0 mg/kg/injection, schedule: Q04DX002 (ip), vehicle: saline with Tween-80 91 % of control

C/C=C/CC1(CC)C(=O)NC(=O)NC1=O
inactive: dose: 75.0 mg/kg/injection, schedule: Q01DX001 (ip), vehicle: other 98 % of control | dose: 75.0 mg/kg/injection, schedule: Q01DX001 (ip), vehicle: saline 93 % of control | dose: 150.0 mg/kg/injection, schedule: Q01DX001 (ip), vehicle: other 110 % of control | dose: 150.0 mg/kg/injection, schedule: Q01DX001 (ip), vehicle: saline 102 % of control | dose: 300.0 mg/kg/injection, schedule: Q01DX001 (ip), vehicle: other 96 % of control

CC(C)(C(O)c1ccccc1)[N+](=O)[O-] (configuration not stated)
inactive: [8] 101 % of control | [9] 97 % of control | [10] 101 % of control

O=C(Nc1ccc(C(=O)O)cc1)Nc1ccccc1Cl
inactive: [13] 106 % of control | [14] 100 % of control | dose: 100.0 mg/kg/injection, schedule: Q04DX002 (ip), vehicle: saline + alcohol 114 % of control | [15] 118 % of control

Cc1cccc(Cl)c1NC(=O)c1cccc([N+](=O)[O-])c1
inactive: [11] 96 % of control | [12] 90 % of control | dose: 400.0 mg/kg/injection, schedule: Q01DX009 (ip), vehicle: Klucel (hydroxypropylcellulose) (HPC) 93 % of control

CCCC(C)(C)C(=O)Nc1cccc(OC(=O)NC(C)(C)C)c1
inactive: [2] 88 % of control | [4] 86 % of control | [6] 89 % of control

O=C(Nc1cccc(Cl)c1)c1ccc2ccccc2c1O
inactive: dose: 100.0 mg/kg/injection, schedule: Q01DX001 (ip), vehicle: saline with Tween-80 97 % of control | [2] 106 % of control | [8] 98 % of control | dose: 200.0 mg/kg/injection, schedule: Q01DX001 (ip), vehicle: saline with Tween-80 93 % of control | [4] 98 % of control | [9] 96 % of control | dose: 400.0 mg/kg/injection, schedule: Q01DX001 (ip), vehicle: saline with Tween-80 97 % of control | [6] 101 % of control | [10] 96 % of control

CCN(CC)C(=O)C1(C)CCCC2(C)c3cc(OC(C)=O)ccc3CCC12 (configuration not stated)
inactive: [11] 92 % of control | dose: 100.0 mg/kg/injection, schedule: Q04DX003 (ip), vehicle: Klucel (hydroxypropylcellulose) (HPC) 108 % of control | [12] 87 % of control | dose: 200.0 mg/kg/injection, schedule: Q04DX003 (ip), vehicle: Klucel (hydroxypropylcellulose) (HPC) 100 % of control | dose: 400.0 mg/kg/injection, schedule: Q04DX003 (ip), vehicle: Klucel (hydroxypropylcellulose) (HPC) 100 % of control

C1=C2CC3(CCC2C(OCc2ccccc2)CC1)OCCO3 (configuration not stated)
inactive: dose: 50.0 mg/kg/injection, schedule: Q01DX009 (ip), vehicle: saline with Tween-80 100 % of control | [2] 92 % of control | [4] 94 % of control

Cc1cc2cc3cccnn3c2nn1
inactive: [13] 106 % of control | [14] 98 % of control | [3] 118 % of control | [15] 106 % of control

COc1ccc(C2=CC(=O)C(c3ccc(OC)cc3)=CC2=O)cc1
inactive: dose: 20.0 mg/kg/injection, schedule: Q01DX009 (ip), vehicle: gum acacia 88 % of control | dose: 20.0 mg/kg/injection, schedule: Q04DX003 (ip), vehicle: gum acacia 86 % of control | dose: 40.0 mg/kg/injection, schedule: Q04DX003 (ip), vehicle: gum acacia 92 % of control | dose: 80.0 mg/kg/injection, schedule: Q01DX009 (ip), vehicle: gum acacia 97 % of control | dose: 80.0 mg/kg/injection, schedule: Q04DX003 (ip), vehicle: gum acacia 91 % of control

O=C(O)Cn1cc(Cl)cc(Cl)c1=O
inactive: [3] 107 % of control | [5] 107 % of control | [7] 96 % of control

Oc1ccccc1C1=NCCN1
inactive: dose: 50.0 mg/kg/injection, schedule: Q04DX002 (ip), vehicle: Klucel (hydroxypropylcellulose) (HPC) 102 % of control | [3] 95 % of control | [5] 91 % of control

CC(=O)NCCc1ccc(S(=O)(=O)F)cc1
inactive: [2] 91 % of control | [4] 102 % of control

CCCCCCCC[Si](CCCCCCCC)CCCCCCCC
inactive: dose: 100.0 mg/kg/injection, schedule: Q04DX003 (ip), vehicle: acetone 95 % of control | dose: 200.0 mg/kg/injection, schedule: Q04DX003 (ip), vehicle: acetone 91 % of control | dose: 400.0 mg/kg/injection, schedule: Q04DX003 (ip), vehicle: acetone 98 % of control
